Read-outs that look alike come from different tables or passages of the source. Where no end group is shown, it is not given here.

Data set [1] is described as follows: Plasma stability of GLP-1 peptide complex (remaining rate in rat plasma, HPLC/MS). The class given is in vitro ADME, SD rats. The note with it: for remaining at 48 h, 0.5 μmol/L / remaining at 8 h, 0.5 μmol/L: SD.
Source text: SD rats were anesthetized with diethyl ether, whole blood was collected and a plasma fraction was separated therefrom.
In data set [2] the target is T1, endogenous GLP-1 receptor (Mus musculus, UniProt O35659).
T1 construct: expressing an endogenous GLP-1 receptor; endogenous in cells; host or cells: MIN 6 mouse insulinoma cells (obtained from a person)
T1 sequence (O35659 22-463): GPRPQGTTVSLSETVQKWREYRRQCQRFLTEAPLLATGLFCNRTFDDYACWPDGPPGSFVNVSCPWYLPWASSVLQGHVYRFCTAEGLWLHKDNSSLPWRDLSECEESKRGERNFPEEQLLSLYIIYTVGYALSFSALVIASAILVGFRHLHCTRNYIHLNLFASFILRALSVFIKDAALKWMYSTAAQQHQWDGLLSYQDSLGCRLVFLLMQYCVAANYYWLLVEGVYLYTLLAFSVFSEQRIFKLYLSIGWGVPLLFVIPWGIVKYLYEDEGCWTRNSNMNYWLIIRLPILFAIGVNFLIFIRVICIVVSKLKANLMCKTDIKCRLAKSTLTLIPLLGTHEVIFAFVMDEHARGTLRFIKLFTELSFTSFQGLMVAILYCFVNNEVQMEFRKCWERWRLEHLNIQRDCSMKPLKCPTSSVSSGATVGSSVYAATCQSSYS
The data set is described as follows: Insulin secretion capacity of GLP-1 peptide complex in MIN 6 cells.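 Also: insulin released into the supernatant of MIN 6 cultures quantified by ELISA, absorbance read at 450 nm with 620 nm reference after substrate addition.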 Format: cell-based. The settings on record: MIN 6 cells, 1000 pM, 15 mM glucose; control = native GLP-1 at 1000 pM.
Procedure: MIN 6 was seeded on a multi-plate, which was cultivated at 37° C. for 48 hours. After that, the culture was washed twice with a KRH buffer solution including 2 mM glucose solution (including NaCl 119 mM, KCl 4.74 mM, CaCl2 2.54 mM, MgCl2 1.19 mM, KH2PO4 1.19 mM, 10 mM HEPES buffer solution pH7.3, and 0.1% BSA), and then it was incubated at 37° C. for one hour. […] A supernatant thereof was recovered, and an amount of insulin secreted was measured. The measurement of the insulin was performed in an enzyme-linked immunosorbent assay (ELISA), and an absorbance was measured at 450 nm (a sub-wavelength: 620 nm) after the addition of a substrate.
EC50 values thereof were calculated in the same manner as in Part 2, and the influence on the bioactivity caused by the addition of the partial peptide of the GA module were inspected in detail.
The analysis was performed using the following calculation formula.

The mark [3] stands for this setting: rat plasma, 0.5 μmol/L, 37° C., 48 hours, relative to 0 hour = 100%, read-out: Remaining rate in plasma after 48 hours (%).

Regarding `CC[C@H](C)[C@H](NC(=O)[C@H](Cc1ccccc1)NC(=O)[C@H](CCC(=O)O)NC(=O)[C@H](CCCCN)NC(=O)[C@H](C)NC(=O)[C@H](C)NC(=O)[C@H](CCC(N)=O)NC(=O)CNC(=O)[C@H](CCC(=O)O)NC(=O)[C@H](CC(C)C)NC(=O)[C@H](Cc1ccc(O)cc1)NC(=O)[C@H](CO)NC(=O)[C@H](CO)NC(=O)[C@@H](NC(=O)[C@H](CC(=O)O)NC(=O)[C@H](CO)NC(=O)[C@@H](NC(=O)[C@H](Cc1ccccc1)NC(=O)[C@@H](NC(=O)CNC(=O)[C@H](CCC(=O)O)NC(=O)[C@H](CO)NC(=O)[C@@H](N)Cc1c[nH]cn1)[C@@H](C)O)[C@@H](C)O)C(C)C)C(=O)N[C@@H](C)C(=O)N[C@@H](Cc1c[nH]c2ccccc12)C(=O)N[C@@H](CC(C)C)C(=O)N[C@H](C(=O)N[C@@H](CCCCN)C(=O)NCC(=O)N[C@@H](CC(C)C)C(=O)N[C@H](C(=O)N[C@@H](CC(=O)O)C(=O)N[C@@H](CCC(=O)O)C(=O)N[C@H](C(=O)N[C@@H](CC(C)C)C(=O)N[C@@H](C)C(=O)N[C@@H](C)C(=O)O)[C@@H](C)CC)[C@@H](C)CC)C(C)C` [Example 20, [Ser8]-GLP-1(7-35)-GAm(37-44)], the share remaining at 48 h, 0.5 μmol/L in data set [1] (setting [3]) was 79%. In addition, the “Remaining rate in plasma after 8 hours (%)” value in data set [1] (rat plasma, 0.5 μmol/L, 37° C., 8 hours, relative to 0 hour = 100%) is recorded as 125%. In data set [2], the “Insulin secretion capacity (% of control)” value is reported as 98%.

Turning to “HSEGTFTSDVSSYLEGQAAKEFIAWLVKGNAKTVEGVKALIDEILAALP-NH2 [Example 15, [Ser8]-GLP-1(7-35)-GAm(27-46)-NH2]”, in data set [1] (rat, plasma), the fraction remaining at 8 h, 0.5 μmol/L stood at 111% and the fraction remaining at 48 h, 0.5 μmol/L was determined as 93%. The “Insulin secretion capacity (% of control)” value in data set [2] stood at 106%.

In the case of “HSEGTFTSDVSSYLEGQAAKEFIAWLVKGGVKALIDEILAA [Example 19, [Ser8]-GLP-1(7-35)-GAm(33-44)]”, in data set [1] (rat, plasma), the fraction remaining at 8 h, 0.5 μmol/L was 114% and the share remaining at 48 h, 0.5 μmol/L is 102%. The “Insulin secretion capacity (% of control)” value in data set [2] was determined as 89%.

Turning to “HAEGTFTSDVSSYLEGQAAKEFIAWLVKGGPVKALIDEILAA-NH2 [Example 22, GLP-1(7-35)-Gly-Pro-GAm(34-44)-NH2]”, in data set [1] (rat, plasma), the fraction remaining at 8 h, 0.5 μmol/L worked out at 98% and the share remaining at 48 h, 0.5 μmol/L was 94%. Also, the “Insulin secretion capacity (% of control)” value in data set [2] was determined as 99%.

“HSEGTFTSDVSSYLEGQAAKEFIAWLVKGGVKALIDEILAA-NH2 [Example 9, [Ser8]-GLP-1(7-35)-GAm(33-44)-NH2]”: in data set [1] (rat, plasma), the amount remaining at 8 h, 0.5 μmol/L came out at 104% and the amount remaining at 48 h, 0.5 μmol/L was found to be 93%. The “Insulin secretion capacity (% of control)” value in data set [2] is listed as 118%.

In the case of `CC[C@H](C)[C@H](NC(=O)[C@H](Cc1ccccc1)NC(=O)[C@H](CCC(=O)O)NC(=O)[C@H](CCCCN)NC(=O)[C@H](C)NC(=O)[C@H](C)NC(=O)[C@H](CCC(N)=O)NC(=O)CNC(=O)[C@H](CCC(=O)O)NC(=O)[C@H](CC(C)C)NC(=O)[C@H](Cc1ccc(O)cc1)NC(=O)[C@H](CO)NC(=O)[C@H](CO)NC(=O)[C@@H](NC(=O)[C@H](CC(=O)O)NC(=O)[C@H](CO)NC(=O)[C@@H](NC(=O)[C@H](Cc1ccccc1)NC(=O)[C@@H](NC(=O)CNC(=O)[C@H](CCC(=O)O)NC(=O)[C@H](CO)NC(=O)[C@@H](N)Cc1c[nH]cn1)[C@@H](C)O)[C@@H](C)O)C(C)C)C(=O)N[C@@H](C)C(=O)N[C@@H](Cc1c[nH]c2ccccc12)C(=O)N[C@@H](CC(C)C)C(=O)N[C@H](C(=O)N[C@@H](CCCCN)C(=O)NCC(=O)N[C@@H](CC(C)C)C(=O)N[C@H](C(=O)N[C@@H](CC(=O)O)C(=O)N[C@@H](CCC(=O)O)C(=O)N[C@H](C(=O)N[C@@H](CC(C)C)C(=O)N[C@@H](C)C(=O)N[C@@H](C)C(N)=O)[C@@H](C)CC)[C@@H](C)CC)C(C)C` [Example 3, [Ser8]-GLP-1(7-35)-GAm(37-44)-NH2], the share remaining at 8 h, 0.5 μmol/L in data set [1] (rat plasma, 0.5 μmol/L, 37° C., 8 hours, relative to 0 hour = 100%, read-out: Remaining rate in plasma after 8 hours (%)) worked out at 113%. In addition, the share remaining at 48 h, 0.5 μmol/L in data set [1] (setting [3]) turned out to be 95%. The “Insulin secretion capacity (% of control)” value in data set [2] is recorded as 82%.

Turning to “HSEGTFTSDVSSYLEGQAAKEFIAWLVKGINNAKTVEGVKALIDEILAALP-NH2 [Example 16, [Ser8]-GLP-1(7-35)-GAm(25-46)-NH2]”, in data set [1] (rat, plasma), the fraction remaining at 8 h, 0.5 μmol/L was 102% and the amount remaining at 48 h, 0.5 μmol/L is 93%. Further, the “Insulin secretion capacity (% of control)” value in data set [2] stood at 104%.

Source of the values: US20130123460A1, “PEPTIDE FOR IMPROVING BIOSTABILITY OF BIOACTIVE SUBSTANCE, AND BIOACTIVE SUBSTANCE HAVING IMPROVED BIOSTABILITY” (priority 2010, published 2013).
